Literature values as cited in patent US9371351B2, “Glycomimetics as Pseudomonas aeruginosa lectin inhibitors” (priority 2012, dated 2016).

Molecular target: LecB (Pseudomonas aeruginosa, UniProt Q9HYN5)
Settings: known value, background; cited from earlier work

Sequence of LecB (Q9HYN5 entry or part of it): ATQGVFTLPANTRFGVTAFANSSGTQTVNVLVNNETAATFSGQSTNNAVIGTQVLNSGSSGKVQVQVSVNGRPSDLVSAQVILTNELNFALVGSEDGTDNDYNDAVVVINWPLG

CC(=O)N[C@H]1C(O)O[C@H](CO)[C@@H](O[C@@H]2O[C@@H](C)[C@@H](O)[C@@H](O)[C@@H]2O)[C@@H]1O[C@@H]1O[C@H](CO)[C@H](O)[C@H](O)[C@H]1O (stereo partly drawn) [Lewis^a trisaccharide, α-Fuc1-4(βGal1-3)-GlcNAc]
Kd: 210 nM
